12 compounds from US9783552B2, “Soluble guanylate cyclase activators” (MERCK SHARP & DOHME CORP., priority 2013, dated 2017) can be followed below.

Experiment [1] relates to Spontaneously hypertensive rats (SHR). In words: Acute Efficacy in Spontaneously Hypertensive Rats (SHR). The experiment is classed as in vivo, rat. To be noted: single oral gavage. From the text: Acute Efficacy in Spontaneously Hypertensive Rats (SHR)
Spontaneously hypertensive rats (SHR, male, Charles River) were implanted with DSI TA 11PA-C40 telemetry device (Data Sciences, Inc., St. Paul, Minn.) under isoflurane or ketamine/metomidine anesthesia. The telemetry unit catheter was inserted into the descending aorta via the femoral artery and the telemetry device was implanted subcutaneously in the left flank area. Animals were allowed to recover from surgery for 14 days before the start of any studies. Blood pressure, heart rate, and activity signals from conscious, freely moving rats were recorded continuously for 30 seconds every 10 min. On the day prior to administration of compound, a single oral dose of vehicle (10% transcutol/20% Cremophor/70% water) was administered to all animals to establish baseline control data. The blood pressure lowering efficacy of compound (PO) or vehicle was evaluated following a single oral gavage. Data were collected as hourly averages, and changes in blood pressure were calculated by subtracting control baseline data on an hourly basis. Animals were maintained on normal diet with a 12 h light-dark cycle.
Maximum peak decreases of systolic blood pressure (SBP) in SHR at a particular P.O. dose (mpk milligrams per kilogram) for the following Example compounds are provided. Category A=SBP in SHRs<25 mmHg; Category B=SBP in SHRs 25-40 mmHg; Category C=SBP in SHRs>40 mmHg.

Experiment [2] has as its target T1, sGC α1/β1 heterodimer (Homo sapiens, UniProt Q02108+Q02153).
T1 construct: expressed in transfected cells
T1 sequence (Q02108 1-690): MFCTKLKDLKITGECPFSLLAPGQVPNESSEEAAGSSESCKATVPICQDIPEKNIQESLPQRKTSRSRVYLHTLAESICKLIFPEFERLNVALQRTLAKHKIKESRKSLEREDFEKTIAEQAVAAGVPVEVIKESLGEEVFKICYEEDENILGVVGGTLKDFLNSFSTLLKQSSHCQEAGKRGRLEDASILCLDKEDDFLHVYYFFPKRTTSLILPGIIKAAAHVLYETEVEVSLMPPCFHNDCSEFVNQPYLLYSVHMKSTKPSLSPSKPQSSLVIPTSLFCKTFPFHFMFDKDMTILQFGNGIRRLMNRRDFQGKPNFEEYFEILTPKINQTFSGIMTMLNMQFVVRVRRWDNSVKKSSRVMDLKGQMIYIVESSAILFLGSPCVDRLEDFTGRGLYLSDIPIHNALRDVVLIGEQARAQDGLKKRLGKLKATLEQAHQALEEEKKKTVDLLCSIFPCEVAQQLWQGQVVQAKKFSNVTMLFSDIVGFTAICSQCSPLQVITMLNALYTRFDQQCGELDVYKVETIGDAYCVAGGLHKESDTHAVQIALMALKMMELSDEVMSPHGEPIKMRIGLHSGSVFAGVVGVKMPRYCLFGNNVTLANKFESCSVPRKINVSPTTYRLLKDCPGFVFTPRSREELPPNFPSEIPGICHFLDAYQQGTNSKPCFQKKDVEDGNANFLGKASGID
T1 sequence (Q02153 1-619): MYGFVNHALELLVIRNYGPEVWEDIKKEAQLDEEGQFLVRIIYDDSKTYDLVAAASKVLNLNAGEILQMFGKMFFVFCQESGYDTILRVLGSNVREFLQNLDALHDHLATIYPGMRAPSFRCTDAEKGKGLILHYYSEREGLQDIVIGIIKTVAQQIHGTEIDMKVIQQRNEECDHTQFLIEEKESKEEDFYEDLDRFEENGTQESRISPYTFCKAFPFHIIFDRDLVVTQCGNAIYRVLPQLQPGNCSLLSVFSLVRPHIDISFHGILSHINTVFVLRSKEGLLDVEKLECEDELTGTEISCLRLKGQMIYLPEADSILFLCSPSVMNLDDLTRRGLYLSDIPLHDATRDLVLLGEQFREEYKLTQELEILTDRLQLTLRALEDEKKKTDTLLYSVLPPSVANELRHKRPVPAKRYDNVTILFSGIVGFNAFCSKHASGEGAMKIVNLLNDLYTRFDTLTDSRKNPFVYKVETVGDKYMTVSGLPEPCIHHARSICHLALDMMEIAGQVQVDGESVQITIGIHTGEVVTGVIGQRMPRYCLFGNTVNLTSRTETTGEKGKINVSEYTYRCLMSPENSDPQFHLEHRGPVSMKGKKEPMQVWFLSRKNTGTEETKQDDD
As to the kind of experiment: Cell-Based sGC Functional Assay (CASA Assay). The following applies: CHO-K1/sGC cells; for EC50: intracellular cGMP by HTRF, 1 hr at 37° C., IP from 4P fit, presence or absence of 1 μM DETA-NO not given; for Emax: cGMP as percentage of maximum cGMP production of Compound A (=100% activation), read-out: % ACT (percent activation). The essentials:
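cGMP accumulation was quantified by HTRF in stable human sGC α1/β1 CHO-K1 cells after 1 hr at 37 °C with compound, 0.5 mM IBMX and 2.5% DMSO. Runs were done in the presence and absence of 1 μM of the NO donor DETA-NO. Activation was normalised to the reference heme-dependent activator maximum (100%), and a 4P fit gave IP and maximum fold induction.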
(TR-FRET usually uses a lanthanide donor and a delayed reading to cut background.)

Broadly, the EC50 is the concentration that produces a half-maximal response. Read a low EC50 as a more potent agent. `Cn1ncc2c(-c3nc(N)c4c(n3)NC(=O)C4(C)c3ccccc3)nc(CCC(F)(F)C(F)(F)F)nc21` (single isomer, unassigned) [Example 1, 4-Amino-5-methyl-2-(1-methyl-6-(3,3,4,4,4-pentafluorobutyl)-1H-pyrazolo[3,4-d]pyrimidin-4-yl)-5-phenyl-5H-pyrrolo[2,3-d]pyrimidin-6(7H)-one]: in experiment [1] (Dose 1 mpk P.O.), the “Maximum peak decrease of systolic blood pressure (SBP) in SHR, Category” value (shortened to “Maximum peak decrease”) is “C (Category C=SBP in SHRs>40 mmHg)”. In experiment [2], it took 40 nM to reach a half-maximal effect (EC50) and the Emax stood at 101%.

For `[2H]C([2H])([2H])n1ncc2c(-c3nc(N)c4c(n3)NC(=O)C4(C)c3ccc(F)cc3)nc(CCC(F)(F)C(F)(F)F)nc21` (single isomer, unassigned) [Example 2, 4-Amino-5-(4-fluorophenyl)-5-methyl-2-(6-(3,3,4,4,4-pentafluorobutyl)-1-trideuteriomethyl-1H-pyrazolo[3,4-d]pyrimidin-4-yl)-5H-pyrrolo[2,3-d]pyrimidin-6(7H)-one], the “Maximum peak decrease” value in experiment [1] (Dose 1 mpk P.O.) was “C (Category C=SBP in SHRs>40 mmHg)”. Besides, in experiment [2], the EC50 is 32 nM and the Emax was 97%.

Consider `Cn1ncc2c(-c3nc(N)c4c(n3)NC(=O)C4(C)c3ccccc3)nc(CCC(F)(F)F)nc21` (single isomer, unassigned) [Example 4, 4-Amino-5-methyl-2-(1-methyl-6-(3,3,3-trifluoropropyl)-1H-pyrazolo[3,4-d]pyrimidin-4-yl)-5-phenyl-5H-pyrrolo[2,3-d]pyrimidin-6(7H)-one], for which the “Maximum peak decrease” value in experiment [1] (Dose 3 mpk P.O.) was “C (Category C=SBP in SHRs>40 mmHg)”. Moreover, in experiment [2], the response was half-maximal at 130 nM (EC50) and the Emax worked out at 108%.

Consider `Cn1ncc2c(-c3nc(N)c4c(n3)NC(=O)C4(C)c3ccc(F)cc3)nc(Cc3cccc(F)c3F)nc21` (single isomer, unassigned) [Example 6, 4-Amino-2-(6-(2,3-difluorobenzyl)-1-methyl-1H-pyrazolo[3,4-d]pyrimidin-4-yl)-5-(4-fluorophenyl)-5-methyl-5H-pyrrolo[2,3-d]pyrimidin-6(7H)-one], for which the “Maximum peak decrease” value in experiment [1] (Dose 3 mpk P.O.) is “A (Category A=SBP in SHRs<25 mmHg)”. Besides, in experiment [2], a half-maximal effect (EC50) was put at 157 nM and the Emax stood at 127%.

Turning to `CCn1ncc2c(-c3nc(N)c4c(n3)NC(=O)C4(C)c3ccccc3)nc(CCC(F)(F)C(F)(F)F)nc21` (single isomer, unassigned) [Example 7, 4-Amino-2-(1-ethyl-6-(3,3,4,4,4-pentafluorobutyl)-1H-pyrazolo[3,4-d]pyrimidin-4-yl)-5-methyl-5-phenyl-5H-pyrrolo[2,3-d]pyrimidin-6(7H)-one], the “Maximum peak decrease” value in experiment [1] (Dose 3 mpk P.O.) is given as “B (Category B=SBP in SHRs 25-40 mmHg)”. Moreover, in experiment [2], the response was half-maximal at 85 nM (EC50) and the Emax worked out at 110%.

For the compound `Cn1ncc2c(-c3nc(N)c4c(n3)NC(=O)C4(C)c3ccc(F)cc3)nc(CCC(F)(F)C(F)(F)F)nc21` (single isomer, unassigned) [Example 9, 4-Amino-5-(4-fluorophenyl)-5-methyl-2-(1-methyl-6-(3,3,4,4,4-pentafluorobutyl)-1H-pyrazolo[3,4-d]pyrimidin-4-yl)-5H-pyrrolo[2,3-d]pyrimidin-6(7H)-one], in experiment [1] (Dose 1 mpk P.O.), the “Maximum peak decrease” value is listed as “C (Category C=SBP in SHRs>40 mmHg)”. Also, in experiment [2], a half-maximal response (EC50) required 46 nM and the Emax was 110%.

As for `[2H]C([2H])([2H])n1ncc2c(-c3nc(N)c4c(n3)NC(=O)C4(C(=O)NC3CC3)C3CC3)nc(CCC(F)(F)C(F)(F)F)nc21` (single isomer, unassigned) [Example 28, 4-Amino-N,5-dicyclopropyl-2-(6-(3,3,4,4,4-pentafluorobutyl)-1-trideuteriomethyl-1H-pyrazolo[3,4-d]pyrimidin-4-yl)-6-oxo-6,7-dihydro-5H-pyrrolo[2,3-d]pyrimidine-5-carboxamide], in experiment [1] (Dose 1 mpk P.O.), the “Maximum peak decrease” value is on record as “C (Category C=SBP in SHRs>40 mmHg)”. Moreover, in experiment [2], a half-maximal effect (EC50) was put at 53 nM and the Emax turned out to be 112%.

On to `Cn1ncc2c(-c3nc(N)c4c(n3)NC(=O)C4(C)C(=O)NC3CC3)nc(CCC(F)(F)C(F)(F)F)nc21` (single isomer, unassigned) [Example 31, 4-Amino-N-cyclopropyl-5-methyl-2-(1-methyl-6-(3,3,4,4,4-pentafluorobutyl)-1H-pyrazolo[3,4-d]pyrimidin-4-yl)-6-oxo-6,7-dihydro-5H-pyrrolo[2,3-d]pyrimidine-5-carboxamide], for which, in experiment [1] (Dose 0.3 mpk P.O.), the “Maximum peak decrease” value was “B (Category B=SBP in SHRs 25-40 mmHg)”. Also, in experiment [2], the EC50 turned out to be 190 nM and the Emax amounted to 132%.

Consider `[2H]C([2H])([2H])n1ncc2c(-c3nc(N)c4c(n3)NC(=O)C4(C)C(=O)NC3CC3)nc(CCC(F)(F)C(F)(F)F)nc21` (single isomer, unassigned) [Example 32, 4-Amino-N-cyclopropyl-5-methyl-2-(6-(3,3,4,4,4-pentafluorobutyl)-1-trideuteriomethyl-1H-pyrazolo[3,4-d]pyrimidin-4-yl)-6-oxo-6,7-dihydro-5H-pyrrolo[2,3-d]pyrimidine-5-carboxamide], for which the “Maximum peak decrease” value in experiment [1] (Dose 1 mpk P.O.) was “A (Category A=SBP in SHRs<25 mmHg)”. Moreover, in experiment [2], the EC50 was 52 nM and the Emax stood at 131%.

For `[2H]C([2H])([2H])OC1(C)C(=O)Nc2nc(-c3nc(CCC(F)(F)C(F)(F)F)nc4c3cnn4C)nc(N)c21` (stereo not drawn) [Example 57, 4-Amino-5-methyl-5-trideuteriomethoxy-2-(1-methyl-6-(3,3,4,4,4-pentafluorobutyl)-1H-pyrazolo[3,4-d]pyrimidin-4-yl)-5H-pyrrolo[2,3-d]pyrimidin-6(7H)-one], in experiment [2], the EC50 was 113 nM and the Emax was determined as 139%.

As for `[2H]C([2H])([2H])n1nc(C2CC2)c2c(-c3nc(N)c4c(n3)NC(=O)C4(C)c3ccc(F)cc3)nc(CCC(F)(F)C(F)(F)F)nc21` (stereo not drawn) [Example 59, 4-Amino-2-(3-cyclopropyl-6-(3,3,4,4,4-pentafluorobutyl)-1-trideuteriomethyl-1H-pyrazolo[3,4-d]pyrimidin-4-yl)-5-(4-fluorophenyl)-5-methyl-5H-pyrrolo[2,3-d]pyrimidin-6(7H)-one], in experiment [2], it took 299 nM to reach a half-maximal effect (EC50) and the Emax was 94%.

For `Cn1ccc2c(-c3nc(N)c4c(n3)NC(=O)C4(C)C)nc(CCC(F)(F)C(F)(F)F)nc21` [Example 63, 4-Amino-5,5,7′-trimethyl-2′-(3,3,4,4,4-pentafluorobutyl)-5H,7′H-[2,4′-bipyrrolo[2,3-d]pyrimidin]-6(7H)-one], in experiment [2], the EC50 came out at 502 nM and the Emax was 76%.
